In brackets after ≈: the same amount, converted by molar mass. Activity calls are given as the source filed them. The rule behind the calls is not given here. Some results are limits rather than exact numbers.

A short description of data set [1]: Photoactivation of the compound assessed as photo conversion ratio by measuring SU release under 5 mins of blue light irradiation by HPLC analysis.
Data set [2] deals with Bacteria. In words: Inhibition of TEM-1 activity (unknown origin). Particulars: concentration not given here.
In data set [3] the test system is Escherichia coli. In words: Synergistic antibacterial activity against Escherichia coli assessed as appearance of incomplete cell wall under light irradiation in presence of CFS. Type of data set: functional, organism-based.
Data set [4] deals with Escherichia coli. As to the kind of experiment: Synergistic antibacterial activity against cefoperazone sodium resistant Escherichia coli assessed as elimination of resistant bacteria incubated for 8 hrs in presence of CFS. Type of data set: functional.
Data set [5] can be described thus: Stability of compound under ambient light condition measured after 72 hrs. Type of data set: physicochemical.
The subject of data set [6] is Escherichia coli. In words: Antibiofilm activity against drug susceptible Escherichia coli incubated for 48 hrs in presence of CFS by crystal violet staining based microplate reader assay. Type of data set: functional, organism-based.
Data set [7] concerns Escherichia coli. In words: Synergistic bactericidal activity against CFS susceptible Escherichia coli incubated under light irradiation in presence of CFS by AO/EB staining based confocal laser scanning microscopy assay. Type of data set: functional, organism-based.
In data set [8] the test system is Escherichia coli. As to the kind of experiment: Bactericidal activity against drug resistant Escherichia coli after repeated drug exposure for multiple generation under light irradiation in presence of CFS by plate count method. Type of data set: functional, organism-based.
The subject of data set [9] is Escherichia coli. In words: Synergistic antibacterial activity against Escherichia coli assessed as appearance of shrunken cell wall under light irradiation in presence of CFS. Type of data set: functional, organism-based.
For data set [10], the system named is Bacteria. In words: Inhibition of TEM-1 activity (unknown origin) at 65 ug/ml using nitrocefin as substrate preincubated for 30 mins followed by 485 nm light irradiation and substrate addition by UV-Vis spectrometer assay. Particulars: dose 65.0 µg/ml.
The test system of data set [11] is Escherichia coli. In words: Antibiofilm activity against Escherichia coli assessed as reduction in exo-polysaccharide content after 48 hrs under light irradiation in presence of CFS by FITC-ConA staining based confocal laser scanning microscopy analysis. Type of data set: functional, organism-based.
For data set [12], the system named is Escherichia coli. As to the kind of experiment: Synergistic antibacterial activity against CFS resistant Escherichia coli assessed as increase in bacterial killing in presence of CFS preincubated for 20 mins prior to 405 nm LED laser irradiation for 5 mins and cocultured for 6 hrs under static condition and measured after 24 hrs by plate count method. Type of data set: functional, organism-based. Particulars: time 1825.0 min.

Data set [13] relates to Escherichia coli. In words: Antibiofilm activity against drug resistant Escherichia coli incubated for 48 hrs in presence of CFS by crystal violet staining based microplate reader assay. Type of data set: functional.
Data set [14] in a line: Solubility of compound in water. Type of data set: physicochemical.
The test system of data set [15] is Escherichia coli. In words: Synergistic bactericidal activity against CFS resistant Escherichia coli incubated under dark condition in presence of CFS by AO/EB staining based confocal laser scanning microscopy assay. Type of data set: functional, organism-based.
Data set [16] deals with Escherichia coli. In words: Antibiofilm activity against Escherichia coli assessed as reduction in bacterial cell density after 48 hrs under light irradiation in presence of CFS by FITC-ConA staining based confocal laser scanning microscopy analysis. Type of data set: functional, organism-based.
Data set [17] concerns Escherichia coli. As to the kind of experiment: Synergistic antibacterial activity against Escherichia coli incubated under light irradiation in presence of AMP. Type of data set: functional, organism-based.
Data set [18] concerns Escherichia coli. As to the kind of experiment: Antibiofilm activity against drug resistant Escherichia coli incubated for 48 hrs under light irradiation in presence of CFS by crystal violet staining based microplate reader assay. Type of data set: functional.
For data set [19], the system named is Bacteria. As to the kind of experiment: Inhibition of TEM-1 activity (unknown origin) at 65 ug/ml using nitrocefin as substrate preincubated for 30 mins followed by 485 nm light irradiation and substrate addition measured after 2 mins by UV-Vis spectrometer assay. Particulars: dose 65.0 µg/ml, time 32.0 min.
Data set [20] concerns Escherichia coli. As to the kind of experiment: Synergistic antibacterial activity against Escherichia coli incubated under dark condition in presence of AMP. Type of data set: functional, organism-based.
In data set [21] the test system is Escherichia coli. As to the kind of experiment: Synergistic antibacterial activity against CFS susceptible Escherichia coli assessed as increase in bacterial killing incubated under dark condition in presence of CFS. Type of data set: functional, organism-based.
Data set [22] deals with Escherichia coli. In words: Synergistic bactericidal activity against CFS resistant Escherichia coli incubated under light irradiation in presence of CFS by AO/EB staining based confocal laser scanning microscopy assay. Type of data set: functional, organism-based.
Data set [23] relates to Escherichia coli. In words: Synergistic antibacterial activity against cefoperazone sodium resistant Escherichia coli assessed as decrease in CFS MIC at 132 ug/ml preincubated for 20 mins prior to 405 nm LED laser irradiation for 5 mins and cocultured for 6 hrs under static condition and measured after 24 hrs by plate count method (reference value: 285 ug/ml). The conditions noted are these: light or radiation study, 30.42 h, dose 132 µg/ml, time 1825 min. Type of data set: functional.

Data set [24] deals with Escherichia coli. As to the kind of experiment: Downregulation of beta-lactamase expression in Escherichia coli measured after eighth generation in presence of CFS under light irradiation condition by ELISA. Type of data set: functional.
The subject of data set [25] is Bacteria. In words: Inhibition of TEM-1 activity (unknown origin) at 65 ug/ml using nitrocefin as substrate under absence of light irradiation by UV-Vis spectrometer assay. The conditions noted are these: dose 65.0 µg/ml.
The test system of data set [26] is Bacteria. In words: Inhibition of TEM-1 activity (unknown origin) at 65 ug/ml using nitrocefin as substrate preincubated for 30 mins followed by 485 nm light irradiation and substrate addition measured after 5 mins by UV-Vis spectrometer assay. The conditions noted are these: dose 65.0 µg/ml, time 35.0 min.
Data set [27] relates to Escherichia coli. In words: Synergistic antibacterial activity against cefoperazone sodium resistant Escherichia coli assessed as elimination of resistant bacteria in presence of CFS preincubated for 20 mins prior to 405 nm LED laser irradiation for 5 mins and cocultured for 6 hrs under static condition and measured after 24 hrs by plate count method. Type of data set: functional. Particulars: time 1825 min; 30.42 h.

Data set [28] is described as follows: Photoactivation of the compound assessed as encapsulated SU release under 405 nm light irradiation by HPLC analysis.
The subject of data set [29] is Escherichia coli. As to the kind of experiment: Synergistic bactericidal activity against CFS susceptible Escherichia coli incubated under dark condition in presence of CFS by AO/EB staining based confocal laser scanning microscopy assay. Type of data set: functional, organism-based.
Another data set relates to HeLa. As to the kind of experiment: Cytotoxicity against human HeLa cells assessed as viable cells after 200 ug/ml incubated for 24 hrs by MTT assay. Type of data set: functional. Particulars: read-out: Activity. Background: Tetrazolium assays rely on reduction of a dye to a coloured formazan, in cell work by metabolically active cells.
Data set [30] relates to Escherichia coli. As to the kind of experiment: Synergistic antibacterial activity against cefoperazone sodium resistant Escherichia coli assessed as decrease in CFS MIC at 20 ug/ml incubated for 8 hrs (reference value: 285 ug/ml). Type of data set: functional. Particulars: dose 20 µg/ml.
The subject of data set [31] is Escherichia coli. In words: Bactericidal activity against drug resistant Escherichia coli after repeated drug exposure for three generation and measured on fourth generation in presence of CFS by plate count method. Type of data set: functional.
Data set [32] relates to Bacteria. In words: Inhibition of TEM-1 activity (unknown origin) at 10 ug/ml using nitrocefin as substrate preincubated for 30 mins followed by 485 nm light irradiation and substrate addition by UV-Vis spectrometer assay. The conditions noted are these: dose 10.0 µg/ml.
For data set [33], the system named is Escherichia coli. As to the kind of experiment: Bactericidal activity against drug resistant Escherichia coli in presence of CFS by plate count method. Type of data set: functional.
For data set [34], the system named is Escherichia coli. As to the kind of experiment: Antibacterial activity against drug susceptible Escherichia coli. Type of data set: functional.
Data set [35] deals with Escherichia coli. As to the kind of experiment: Antibacterial activity against drug resistant Escherichia coli. Type of data set: functional.
Data set [36] concerns Escherichia coli. As to the kind of experiment: Antibacterial activity against cefoperazone sodium resistant Escherichia coli assessed as elimination of resistant bacteria incubated for 8 hrs. Type of data set: functional.
Data set [37] deals with Escherichia coli. In words: Bactericidal activity against CFS susceptible Escherichia coli incubated under dark condition by AO/EB staining based confocal laser scanning microscopy assay. Type of data set: functional, organism-based.
The subject of data set [38] is Escherichia coli. As to the kind of experiment: Antibiofilm activity against drug susceptible Escherichia coli incubated for 48 hrs by crystal violet staining based microplate reader assay. Type of data set: functional, organism-based.
For data set [39], the system named is Escherichia coli. In words: Bactericidal activity against CFS susceptible Escherichia coli incubated under light irradiation by AO/EB staining based confocal laser scanning microscopy assay. Type of data set: functional, organism-based.
Data set [40] concerns Escherichia coli. As to the kind of experiment: Bactericidal activity against CFS resistant Escherichia coli incubated under dark condition by AO/EB staining based confocal laser scanning microscopy assay. Type of data set: functional, organism-based.
Data set [41] deals with Escherichia coli. In words: Antibiofilm activity against drug resistant Escherichia coli incubated for 48 hrs by crystal violet staining based microplate reader assay. Type of data set: functional.
Data set [42] concerns Escherichia coli. In words: Antibacterial activity against cefoperazone sodium susceptible Escherichia coli incubated for 8 hrs. Type of data set: functional.
The test system of data set [43] is Escherichia coli. As to the kind of experiment: Antibacterial activity against cefoperazone sodium resistant Escherichia coli incubated for 8 hrs. Type of data set: functional.
The subject of data set [44] is Escherichia coli. As to the kind of experiment: Antibacterial activity against CFS resistant Escherichia coli assessed as change in bacterial cell wall by SEM analysis. Type of data set: functional, organism-based.
Data set [45] is described as follows: Drug uptake in Escherichia coli assessed as increase in red fluorescence at 1 mg/ml after 1 mins under 405 nm light irradiation by acridine orange staining based confocal laser scanning microscopy analysis. Type of data set: ADME.
A short description of data set [46]: Drug uptake in Escherichia coli assessed as increase in red fluorescence at 1 mg/ml incubated for 15 mins under dark condition by acridine orange staining based confocal laser scanning microscopy analysis. Type of data set: ADME. The conditions noted are these: 0.25 h.

A word on the inhibition: it is the share of the control response that was lost under treatment. For the compound `CC1(C)C(C(=O)OCCc2ccccc2[N+](=O)[O-])N2C(=O)CC2S1(=O)=O` (stereo not given), the Activity in [1] is listed as 25%. Further, the inhibition with Bacteria [2] was 9.03%.

As a reminder, the solubility is the concentration that dissolves in the medium under given conditions. Lower therefore signals a poorly soluble substance. The term MIC denotes the lowest concentration found to suppress growth. For the compound `CC(COC(=O)C1N2C(=O)CC2S(=O)(=O)C1(C)C)c1cc(-c2ccc(OCCOCCOCCOCCn3nncc3CCCO[C@H]3O[C@H](CO)[C@H](O)[C@H](O)[C@H]3O)cc2)ccc1[N+](=O)[O-]` (stereo not given in full), the result with Escherichia coli [3], with Escherichia coli [6], in the data set on Escherichia coli [7], with Escherichia coli [8], in the data set on Escherichia coli [9] and in the data set on Escherichia coli [11] was Active. For the same compound, the outcome with Escherichia coli [12], in the data set on Escherichia coli [16], in the data set on Escherichia coli [17], in the data set with Escherichia coli [20], with Escherichia coli [21] and in the data set with Escherichia coli [22] was Active. Also, in the data set on Escherichia coli [24], the result was Active. Besides, the Activity with Escherichia coli [4] was 54.7%; in [1], 62%; in the data set on Escherichia coli [13] it was roughly 50%; in the data set with Escherichia coli [18], roughly 90%; in the data set with Escherichia coli [27] it was 96.01%; in [28], ~ 60%. For the same compound, the Stability entry in data set [5] is “Stable”. For the same compound, in the data set with Bacteria [10], the inhibition result was “Active”. In data set [14], the solubility is no more than 1000 µM. Moreover, the outcome in the data set on Escherichia coli [15] and in the data set with Escherichia coli [29] was inactive. The inhibition was 84.7% in the data set with Bacteria [19], 7.26% with Bacteria [25] and 89.1% in the data set on Bacteria [26]. Further, in the data set on Escherichia coli [23], the MIC turned out to be 14 mg/L. For the same compound, the viability at 200 µg/mL in the data set on HeLa is greater than 90%.

Turning to `CC1(C)[C@H](C(=O)O)N2C(=O)C[C@H]2S1(=O)=O` [SULBACTAM], the result with Escherichia coli [6] was Active. Moreover, the MIC in the data set with Escherichia coli [30] is 14 mg/L. Further, the figures for the Activity with Escherichia coli [31] and in the data set with Escherichia coli [33] were 45% and 98%, respectively. The same compound yielded an inhibition in the data set on Bacteria [32] of 93.3%.

In the data set with Bacteria [2], `CC1(C)C(C(=O)OCCCOC(=O)Cc2ccccc2[N+](=O)[O-])N2C(=O)CC2S1(=O)=O` (stereo not given) had an inhibition of 10.6%.

In the case of `CC1(C)S[C@@H]2[C@H](NC(=O)[C@H](N)c3ccccc3)C(=O)N2[C@H]1C(=O)O` [AMPICILLIN], the MIC was 8 mg/L (≈ 22.9 µM) with Escherichia coli [34] and 150 mg/L (≈ 429 µM) against Escherichia coli [35].

In the case of `CCN1CCN(C(=O)N[C@@H](C(=O)N[C@@H]2C(=O)N3C(C(=O)[O-])=C(CSc4nnnn4C)CS[C@H]23)c2ccc(O)cc2)C(=O)C1=O.[Na+]` [CEFOPERAZONE SODIUM], the Activity in the data set on Escherichia coli [36] was 54.2%; in the data set on Escherichia coli [41], roughly 50%. The result in the data set with Escherichia coli [37], with Escherichia coli [38] and with Escherichia coli [39] was Active. Besides, the outcome in the data set with Escherichia coli [40] and in the data set with Escherichia coli [44] was inactive. The values for the MIC in the data set on Escherichia coli [42] and in the data set on Escherichia coli [43] were 14 mg/L and 285 mg/L, respectively.

For the compound `CCN(CC)c1ccc2c(-c3ccccc3COCC(C)c3cc(-c4ccc(OCCOCCOCCOCCn5nncc5CCCO[C@H]5O[C@H](CO)[C@H](O)[C@H](O)[C@H]5O)cc4)ccc3[N+](=O)[O-])c3ccc(=[N+](CC)CC)cc-3oc2c1.Cl` (stereo not given in full), the Drug uptake entry in data set [45] and in data set [46] was “Active” in each case.
